MIC and pest or weed control data for 43 compounds are collected here from patent publication US20150246898A1, “METALLOENZYME INHIBITOR COMPOUNDS” (DOW AGROSCIENCES LLC, priority 2012, published 2015).

Molecules are shown by their SMILES. ≈ marks a conversion by molar mass, not a printed value. Where only a bound is given, the exact number is not on record here.

The test system of assay [1] is Septoria tritici (ATCC 26517). In words: Minimum Inhibitory Concentration (MIC) vs. Septoria tritici, CLSI-based microdilution. The assay is classed as cell-based. Particulars: Zymoseptoria tritici, ATCC26517, 168 h; MIC = 50% reduction in growth of S. tritici, 7 days at 22 °C, RPMI/MOPS, 1% DMSO; read-out: Septoria Rating (MIC). As to the method:
Compounds of the present disclosure were assessed for their ability to inhibit the growth of a common strain of the fungal plant pathogen Septoria tritici (ATCC 26517) using a procedure based on a Clinical and Laboratory Standards Institute (CLSI) microdilution assay protocol for filamentous fungi. Stock solutions of the test compounds and standards were prepared in DMSO at 6400 μg/mL. Each stock solution was used to prepare a 2-fold dilution series ranging from 16 to 0.016 μg/mL (total of 11 compound concentrations) in RPMI-1640 (Roswell Park Memorial Institute) medium containing 3-(N-morpholino)propanesulfonic acid (MOPS) buffer and 2% DMSO. A 100 μL aliquot of the dilutions was added to columns 1 (16 μg/mL compound) through 11 (0.016 μg/mL compound) of a 96-well microtiter plate. This format was replicated in a second row of the microtiter plate. Thus, each microtiter plate could include 11 concentrations of four test or control compounds replicated twice. A 100 μL aliquot of RPMI-1640/MOPS/2% DMSO medium was added to column 12 (no compound control) of the microtiter plate. A fresh culture of S. tritici was used to prepare a solution of approximately 5×10^4 colony-forming units per milliliter (cfu/mL) in RPMI/MOPS medium without DMSO. A 100 μL aliquot of this solution was added to all 96 wells in the microtiter plate. […] In each case of Table 3 the Septoria rating scale is as follows: […]

Assay [2] relates to Puccinia recondita tritici = Puccinia triticina (PUCCRT). The assay can be described thus: Fungicidal activity vs. leaf rust on wheat plants (1-day protectant spray). The assay is classed as in vivo. The settings on record: wheat (variety Yuma) sprayed at 50 ppm, inoculated next day, disease severity evaluated 7-9 days later, read-out: Puccinia Rating (% Disease Control @ 50 ppm). From the text:
Each pot contained 3-8 seedlings. These plants were sprayed until wet with the formulated test compounds. The compounds were formulated at 50 ppm in 10 vol. % acetone plus 90 vol. % Triton X water (deionized water 99.99 wt %+0.01 wt % Triton X100), giving a “formulated test compound.” Formulated test compounds were applied to plants using a turn table sprayer fitted with two opposing air atomization nozzles which delivered approximately 1500 L/ha of spray volume. On the following day, the leaves were inoculated with an aqueous spore suspension of Puccinia recondita tritici and the plants were kept in high humidity overnight to permit spores to germinate and infect the leaf. The plants were then transferred to a greenhouse until disease developed on untreated control plants. Disease severity was evaluated 7-9 days later, depending on the speed of disease development. In each case of Table 3, the Puccinia rating scale is as follows: […]

Turning to `O=[N+]([O-])c1ccc(C#Cc2ccc(C(F)(F)C(O)(c3cncnc3)c3ccc(F)cc3F)nc2)cc1` (racemic) [Example 16, 1-(2,4-Difluorophenyl)-2,2-difluoro-2-(5-((4-nitrophenyl)ethynyl)pyridin-2-yl)-1-(pyrimidin-5-yl)ethanol], in assay [1], the MIC (commonly the lowest concentration that inhibits growth of the organism) is at most 0.5 µg/mL. The pest or weed control at 50 ppm in assay [2] is 60 to 79%.

Take `N#Cc1ccc(CCc2ccc(C(F)(F)C(O)(c3cncnc3)c3ccc(F)cc3F)nc2)cc1` (racemic) [Example 32]: the MIC in assay [1] was at most 0.5 µg/mL. Turning to `OC(c1cncnc1)(c1ccc(F)cc1F)C(F)(F)c1ccc(C#Cc2ccc(OC(F)(F)F)cc2)cn1` (racemic) [Example 14], in assay [1], the MIC is at most 0.5 µg/mL. In addition, the pest or weed control at 50 ppm in assay [2] lay in the range of 80 to 100%. As to `N#Cc1ccc(COc2ccc(C(F)(F)C(O)(c3cncnc3)c3ccc(F)cc3F)nc2)c(F)c1` (racemic) [Example 68], in assay [2], the pest or weed control at 50 ppm is 80 to 100%.

For the compound `CCC(O)(c1cncnc1)C(F)(F)c1ccc(C#Cc2ccc(C#N)cc2)cn1` (racemic) [Example 46], the MIC in assay [1] was in the range of 1.5 to 4 µg/mL (≈ 3.84 to 10.2 µM). With `CC(C)C(O)(c1cncnc1)C(F)(F)c1ccc(OCc2ccc(Cl)cc2F)cn1` (racemic) [Example 50], in assay [1], the MIC was 1.5 to 4 µg/mL (≈ 3.43 to 9.14 µM). On the same count and under the same terms, then `OC(c1cncs1)(c1ccc(F)cc1F)C(F)(F)c1ccc(C#Cc2ccc(F)cc2)cn1` (racemic) [Example 28], with 1.5 to 4 µg/mL (≈ 3.18 to 8.47 µM); and `OC(c1ccc(Cl)cc1)(c1cncnc1)C(F)(F)c1ccc(Oc2cccc(Cl)c2)cn1` (stereo not shown) [Example 61], with 1.5 to 4 µg/mL (≈ 3.16 to 8.43 µM).

Regarding `OC(c1cncnc1)(c1ccc(F)cc1F)C(F)(F)c1ccc(OCC(F)(F)F)cn1` (racemic) [Example 34], the MIC in assay [1] is 0.5 to 1.5 µg/mL (≈ 1.12 to 3.35 µM). In addition, the pest or weed control at 50 ppm in assay [2] lay within 80 to 100%.

On to `Nc1ccc(C#Cc2ccc(C(F)(F)C(O)(c3cncnc3)c3ccc(F)cc3F)nc2)cc1` (racemic) [Example 20, 2-(5-((4-Aminophenyl)ethynyl)pyridin-2-yl)-1-(2,4-difluorophenyl)-2,2-difluoro-1-(pyrimidin-5-yl)ethanol], for which the MIC in assay [1] was at most 0.5 µg/mL. Further, in assay [2], the pest or weed control at 50 ppm was 60 to 79%. On the same counts, the results for `CC(C)C(O)(c1cncnc1)C(F)(F)c1ccc(C#Cc2cccc(C#N)c2)cn1` (racemic) [Example 67] are at most 0.5 µg/mL and below 40%. As for `OC(c1cncnc1)(c1ccc(F)cc1F)C(F)(F)c1ccc(Oc2ccc(Cl)cc2)cn1` (racemic) [Example 40], in assay [1], the MIC is above 4 µg/mL. On to `O/N=C/c1ccc(C#Cc2ccc(C(F)(F)C(O)(c3cncnc3)c3ccc(F)cc3F)nc2)cc1` (racemic) [Example 23], for which the MIC in assay [1] lay in the range of 1.5 to 4 µg/mL (≈ 3.05 to 8.12 µM). On the same count and under the same terms, then `N#Cc1cccc(C#Cc2ccc(C(F)(F)C(O)(c3ccc(Cl)cc3)c3cncnc3)nc2)c1` (racemic) [Example 66], with 0.5 to 1.5 µg/mL (≈ 1.06 to 3.17 µM); and `CCCC(O)(c1cncnc1)C(F)(F)c1ccc(C#Cc2ccc(C#N)cc2)cn1` (racemic) [Example 45], with 1.5 to 4 µg/mL (≈ 3.71 to 9.89 µM). Consider `CSc1ccc(C#Cc2ccc(C(F)(F)C(O)(c3cncnc3)c3ccc(F)cc3F)nc2)cc1` (racemic) [Example 22], for which the minimal inhibitory concentration (MIC) in assay [1] fell in the range of 1.5 to 4 µg/mL (≈ 3.03 to 8.07 µM). As to `OC(c1ccc(Cl)cc1)(c1cncnc1)C(F)(F)c1ccc(OCc2ccc(Cl)cc2)cn1` (stereo not shown) [Example 69], the pest or weed control at 50 ppm in assay [2] is below 40%.

Take `OC(c1cncnc1)(c1ccc(F)cc1F)C(F)(F)c1ccc(C#Cc2ccc(NCC(F)(F)F)cc2)cn1` (racemic) [Example 36]: the MIC in assay [1] is at most 0.5 µg/mL. The same measure, in the same setting: then `N#Cc1ccc(COc2ccc(C(F)(F)C(O)(c3cncnc3)c3ccc(F)cc3F)nc2)cc1` (racemic) [Example 56], with 0.5 to 1.5 µg/mL (≈ 1.04 to 3.12 µM).

As for `OC(c1cncnc1)(c1ccc(F)cc1F)C(F)(F)c1ccc(OCc2ccc(Cl)c(Cl)c2)cn1` (stereo not shown) [Example 52], the MIC in assay [1] was in the range of 0.5 to 1.5 µg/mL (≈ 0.954 to 2.86 µM). For the same compound, in assay [2], the pest or weed control at 50 ppm was in the range of 60 to 79%.

Regarding `O=Cc1ccc(C#Cc2ccc(C(F)(F)C(O)(c3cncnc3)c3ccc(F)cc3F)nc2)cc1` (racemic) [Example 31], the MIC in assay [1] lay in the range of 0.5 to 1.5 µg/mL (≈ 1.05 to 3.14 µM).

As to `OC(c1cncnc1)(c1ccc(F)cc1F)C(F)(F)c1ccc(OCc2ccc(Cl)c(F)c2)cn1` (racemic) [Example 51], the MIC in assay [1] lay within 0.5 to 1.5 µg/mL (≈ 0.985 to 2.95 µM). Besides, the pest or weed control at 50 ppm in assay [2] was in the range of 60 to 79%.

For the compound `OC(c1cnccn1)(c1ccc(F)cc1F)C(F)(F)c1ccc(C#Cc2ccc(F)cc2)cn1` (racemic) [Example 25], the pest or weed control at 50 ppm in assay [2] is below 40%. For the compound `N#Cc1ccc(-c2ccc(C(F)(F)C(O)(c3cncnc3)c3ccc(F)cc3F)nc2)cc1` (racemic) [Example 4, 4-(6-(2-(2,4-difluorophenyl)-1,1-difluoro-2-hydroxy-2-(pyrimidin-5-yl)ethyl)pyridin-3-yl)benzonitrile], the MIC in assay [1] was above 4 µg/mL. In the case of `OC(c1cncnc1)(c1ccc(F)cc1F)C(F)(F)c1ccc(OCc2ccc(Cl)cc2)cn1` (racemic) [Example 41], in assay [1], the MIC was at most 0.5 µg/mL. The pest or weed control at 50 ppm in assay [2] was 80 to 100%. Regarding `OC(c1cnco1)(c1ccc(F)cc1F)C(F)(F)c1ccc(C#Cc2ccc(F)cc2)cn1` (racemic) [Example 29], in assay [1], the MIC is above 4 µg/mL.

Take `OC(c1cncnc1)(c1ccc(F)cc1F)C(F)(F)c1ccc(OCc2cccc(Cl)c2)cn1` (racemic) [Example 59]: the MIC in assay [1] is 0.5 to 1.5 µg/mL (≈ 1.02 to 3.06 µM). With `CC(C)C(O)(c1cncnc1)C(F)(F)c1ccc(C#Cc2ccc(Cl)cc2)cn1` (racemic) [Example 64], the MIC in assay [1] was at most 0.5 µg/mL. In assay [2], the pest or weed control at 50 ppm is below 40%. Consider `COc1ccc(COc2ccc(C(F)(F)C(O)(c3cncnc3)c3ccc(F)cc3F)nc2)cc1` (racemic) [Example 49], for which the minimal inhibitory concentration (MIC) in assay [1] lay within 0.5 to 1.5 µg/mL (≈ 1.03 to 3.09 µM). For `OC(c1cncnc1)(c1ccc(F)cc1F)C(F)(F)c1ccc(C#CCOCC(F)(F)F)cn1` (racemic) [Example 6, 1-(2,4-difluorophenyl)-2,2-difluoro-1-(pyrimidin-5-yl)-2-(5-(3-(2,2,2-trifluoroethoxy)prop-1-ynyl)pyridin-2-yl)ethanol], in assay [1], the minimal inhibitory concentration (MIC) is above 4 µg/mL. The same measure, in the same setting: as for `Oc1ccc(C#Cc2ccc(C(F)(F)C(O)(c3cncnc3)c3ccc(F)cc3F)nc2)cc1` (racemic) [Example 19, 4-((6-(2-(2,4-Difluorophenyl)-1,1-difluoro-2-hydroxy-2-(pyrimidin-5-yl)ethyl)pyridin-3-yl)ethynyl)phenol], the figure is at most 0.5 µg/mL; as for `CC(C)C(O)(c1cncnc1)C(F)(F)c1ccc(C#Cc2ccc(F)cc2)cn1` (racemic) [Example 63], 0.5 to 1.5 µg/mL (≈ 1.26 to 3.77 µM); as for `OC(c1cccnn1)(c1ccc(F)cc1F)C(F)(F)c1ccc(C#Cc2ccc(F)cc2)cn1` (racemic) [Example 24], above 4 µg/mL. Still for that read-out and setting: as for `CNc1ccc(CCc2ccc(C(F)(F)C(O)(c3cncnc3)c3ccc(F)cc3F)nc2)cc1` (racemic) [Example 33], the figure is at most 0.5 µg/mL; as for `CC(C)C(O)(c1cncnc1)C(F)(F)c1ccc(OCc2ccc(C#N)cc2)cn1` (racemic) [Example 57], above 4 µg/mL; as for `OC(c1cncnc1)(c1ccc(F)cc1F)C(F)(F)c1ccc(OCc2ccc(C(F)F)cc2)cn1` (racemic) [Example 54], above 4 µg/mL. Still for that read-out and setting: then `OC(c1c[nH]nn1)(c1ccc(F)cc1F)C(F)(F)c1ccc(C#Cc2ccc(F)cc2)cn1` (racemic) [Example 26], with above 4 µg/mL; and `N#Cc1ccc(C#Cc2ccc(C(F)(F)C(O)(c3cncnc3)c3ccc(F)cc3F)nc2)cn1` (racemic) [Example 17], with 0.5 to 1.5 µg/mL (≈ 1.05 to 3.16 µM); and `CC(C)C(O)(c1cncnc1)C(F)(F)c1ccc(OCc2ccc(Cl)cc2)cn1` (racemic) [Example 53], with 0.5 to 1.5 µg/mL (≈ 1.19 to 3.57 µM).

Regarding `O=[N+]([O-])c1ccc(COc2ccc(C(F)(F)C(O)(c3cncnc3)c3ccc(F)cc3F)nc2)cc1` (racemic) [Example 58], in assay [1], the MIC lay within 1.5 to 4 µg/mL (≈ 3 to 7.99 µM). Same read-out and setting: as for `N#Cc1ccc(C#Cc2ccc(C(F)(F)C(O)(c3ccc(F)cc3)c3cncnc3)nc2)cc1` (racemic) [Example 44], the figure is above 4 µg/mL; as for `OC(c1cc[nH]n1)(c1ccc(F)cc1F)C(F)(F)c1ccc(C#Cc2ccc(F)cc2)cn1` (racemic) [Example 30], 1.5 to 4 µg/mL (≈ 3.29 to 8.78 µM); as for `OC(c1cncnc1)(C(F)(F)F)C(F)(F)c1ccc(-c2ccc(Cl)cc2)cn1` (racemic) [Example 71, 1-(5-(4-Chlorophenyl)pyridin-2-yl)-1,1,3,3,3-pentafluoro-2-(pyrimidin-5-yl)propan-2-ol], at most 0.5 µg/mL.
